Like-named read-outs stand apart in the source and are kept apart here.
Assays:
[1] = biological target: T1, β3AR (Rattus norvegicus, UniProt P26255); conditions: rats, intravenous administration, cited from earlier work
T1 construct: host or cells: live rats (bladder, in vivo)

[2] = biological target: T2, human β3 adrenergic receptor (Homo sapiens, UniProt P13945); assay: Beta-3 agonist in vitro functional assay: cAMP production (LANCE TR-FRET) in CHO cells stably transfected with the cloned β3 receptor; type: cell-based; conditions: read-out: Human β3 agonist functional activity
T2 construct: expressed in transfected cells; host or cells: Chinese hamster ovary (CHO) cells, stably transfected
T2 sequence (P13945 whole entry): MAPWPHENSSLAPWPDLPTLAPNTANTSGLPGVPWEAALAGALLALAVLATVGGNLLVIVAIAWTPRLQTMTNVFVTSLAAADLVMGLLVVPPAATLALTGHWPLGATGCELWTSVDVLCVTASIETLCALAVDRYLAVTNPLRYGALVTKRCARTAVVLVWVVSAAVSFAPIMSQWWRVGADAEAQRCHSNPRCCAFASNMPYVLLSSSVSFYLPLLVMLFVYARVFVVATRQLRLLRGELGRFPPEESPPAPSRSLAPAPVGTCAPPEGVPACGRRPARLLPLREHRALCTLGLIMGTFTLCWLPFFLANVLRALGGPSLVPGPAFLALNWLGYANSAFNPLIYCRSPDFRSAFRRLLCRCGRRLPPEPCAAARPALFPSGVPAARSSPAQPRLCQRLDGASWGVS
Procedure, shortened: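 CHO cells stably expressing the cloned receptor, in HEPES-buffered HBSS with BSA and 0.6 mM IBMX, 6,000 cells/well, exposed to compound for 30 min at RT. cAMP read by LANCE TR-FRET against a cAMP standard curve. Isoproterenol defines maximal stimulation.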

[3] = Table 8, Beta-3 agonist in vitro functional assay
[4] = Table 9, Beta-3 agonist in vitro functional assay
[5] = Table 10, Beta-3 agonist in vitro functional assay

T1 sequence (P26255 whole entry): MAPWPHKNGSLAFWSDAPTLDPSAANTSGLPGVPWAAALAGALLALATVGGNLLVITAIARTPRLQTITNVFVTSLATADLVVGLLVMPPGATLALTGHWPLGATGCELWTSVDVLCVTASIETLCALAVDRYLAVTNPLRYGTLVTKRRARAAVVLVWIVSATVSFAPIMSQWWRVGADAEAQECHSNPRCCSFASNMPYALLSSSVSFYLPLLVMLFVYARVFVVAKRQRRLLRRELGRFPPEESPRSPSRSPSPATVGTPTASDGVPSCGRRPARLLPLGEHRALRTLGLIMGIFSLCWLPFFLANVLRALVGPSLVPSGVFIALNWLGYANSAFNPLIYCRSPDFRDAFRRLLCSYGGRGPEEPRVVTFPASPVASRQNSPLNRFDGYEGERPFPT

In the case of `C[C@H](Cc1ccc2c(c1)OC(C(=O)[O-])(C(=O)[O-])O2)NC[C@H](O)c1cccc(Cl)c1.[Na+].[Na+]` [CL316243], the bladder capacity ([1]; cystometric studies) is listed as “increases bladder capacity”, the micturition interval ([1]; cystometric studies) is listed as “prolongation of micturition interval” and the residual urine volume ([1]; cystometric studies) is listed as “without increasing residual urine volume”. The bladder pressure [1] was “reduces bladder pressure”.
`Cc1ccc2c(c1)NC(=O)C21CCN(C(=O)c2ccc(C[C@@H]3CC[C@H]([C@H](O)c4ccccc4)N3)cc2)CC1` [Example 300] showed an EC50 [2, 3] of 10 to 99.9 nM.
In the case of `O=C(c1ccc(C[C@@H]2CC[C@H]([C@H](O)c3ccccc3)N2)cc1)N1CCN(c2ncccc2F)CC1` [Example 357], the EC50 [2, 4] is reported as 100 to 999 nM.
In the case of `CC(C(=O)N1CCCCC1C)N1CCN(C(=O)c2ccc(C[C@@H]3CC[C@H]([C@H](O)c4ccccc4)N3)cc2)CC1` (some centres unmarked) [Example 485], the EC50 [2, 5] is reported as 10 to 99.9 nM.
Compound `O=C(c1ccc(C[C@@H]2CC[C@H]([C@H](O)c3ccccc3)N2)cc1)N1CCN(Cc2nccs2)CC1` [Example 394] has an EC50 [2, 4] of 10 to 99.9 nM.
In the case of `Cc1ccc(CC2(O)CCN(C(=O)c3ccc(C[C@@H]4CC[C@H]([C@H](O)c5ccccc5)N4)cc3)CC2)cc1` [Example 246], the EC50 [2, 3] is reported as 10 to 99.9 nM.
For `O=C1CN(C(=O)c2ccc(C[C@@H]3CC[C@H]([C@H](O)c4ccccc4)N3)cc2)CCN1Cc1ccccn1` [Example 545], the EC50 ([2]; Table 11, cAMP, CHO cells) was 100 to 999 nM.
In the case of `CCOC(=O)C1(S(C)(=O)=O)CCCN(C(=O)c2ccc(C[C@@H]3CC[C@H]([C@H](O)c4ccccc4)N3)cc2)C1` (some centres unmarked) [Example 36], the EC50 ([2]; Table 4, cAMP, CHO cells) is reported as 10 to 99.9 nM.
`CCC(c1ccccn1)N1CCN(C(=O)c2ccc(CC3CCC(C(O)c4ccccc4)N3)cc2)CC1` (single isomer, unassigned) [Example 588] showed an EC50 ([2]; Table 12, human β3 functional activity given as ranges) of 1 to 9.9 nM.
`COC(=O)C(C)N1CCN(C(=O)c2ccc(C[C@@H]3CC[C@H]([C@H](O)c4ccccc4)N3)cc2)CC1` (some centres unmarked) [Example 434] showed an EC50 [2, 5] of 1 to 9.9 nM.
For `Cc1cncn1C1CCN(C(=O)c2ccc(C[C@@H]3CC[C@H]([C@H](O)c4cccnc4)N3)cc2)CC1` [Example 87], the EC50 ([2]; Table 5, cAMP, CHO cells) was 100 to 999 nM.
`O=C(c1ccc(C[C@@H]2CC[C@H]([C@H](O)c3ccccc3)N2)cc1)N1Cc2cncnc2C1` [Example 25] showed an EC50 ([2]; Table 4, cAMP, CHO cells) of 100 to 999 nM.
`O=C(c1ccc(C[C@@H]2CC[C@H]([C@H](O)c3ccccc3)N2)cc1)N1CCN(Cc2cnccn2)CC1` [Example 426] gave an EC50 [2, 4] of 10 to 99.9 nM.
Compound `CS(=O)(=O)C1CCN(C(=O)c2ccc(C[C@@H]3CC[C@H]([C@H](O)c4cccnc4)N3)cc2)CC1` [Example 123] has an EC50 ([2]; Table 5, cAMP, CHO cells) of 100 to 999 nM.
With `CC(C(=O)N1CCc2ccc(Cl)cc2C1)N1CCN(C(=O)c2ccc(C[C@@H]3CC[C@H]([C@H](O)c4ccccc4)N3)cc2)CC1` (some centres unmarked) [Example 510] the EC50 [2, 5] was 1 to 9.9 nM.
`CC(C(=O)N1C(C)CCC1C)N1CCN(C(=O)c2ccc(C[C@@H]3CC[C@H]([C@H](O)c4ccccc4)N3)cc2)CC1` (some centres unmarked) [Example 479] showed an EC50 [2, 5] of 10 to 99.9 nM.
With `CON=C1CCCC12CCN(C(=O)c1ccc(CC3CCC(C(O)c4ccccc4)N3)cc1)CC2` (centres unmarked) [Example 318] the EC50 [2, 3] was 100 to 999 nM.

From US8354403B2, “Pyrrolidine derived beta 3 adrenergic receptor agonists” (Merck Sharp & Dohme Corp., priority 2009, dated 2013)
